From patent publication US20230302022A1, “PREVENTING OR MITIGATING CHEMOTHERAPY INDUCED ALOPECIA USING VITAMIN D” (priority 2016, published 2023)
Several values for one entry are separate records, joined by “and”; a condition that tells them apart may be missing. Identical values can stand only once.

What was measured:
[1] = tested on: Sprague-Dawley or Long Evans rats; experiment: CIA in 5-day-old Sprague-Dawley or Long Evans rats, calcitriol 1, 2 or 3 μg/mL; assay type: in vivo, rat
[2] = tested on: squamous cell carcinoma and human prostate cell carcinoma; details: 2.5 μg 3 doses daily for 3 days, followed by paclitaxel; cited from earlier work
C57BL/6 mice = details: cited from earlier work
[3] = Phase I study: serum levels of calcitriol (PK); assay type: in vivo, human; design: unit not given here; details: individual patients
Method: Pharmacokinetics (all patients). For the purpose of pharmacokinetic studies (PKs), blood samples will be collected on Day 1 of topical treatment at the following time points: pre-dose, at 2 hours (+/−30 minutes), 4 hours (+/−30 minutes), and 8 hours (+/−1 hour post dose) after a single application on the morning of Day 1. The second application of drug product will be applied 10-14 hours after the initial application and after the 8 hour PK sample. Thereafter, topical application frequency will be twice daily, morning and night. Subsequently, a PK sample will be taken 12 hours (+/−2 hours) after the last dose of each 28 day treatment, before the first application of Day 1 of the next 28 day treatment cycle. This schedule will continue for three consecutive 28 day topical treatment cycles. (PKs will be drawn at weeks 1, 5, 9, and 13. In addition if patients are still on study, a PK will also be drawn at week 54.) Vital signs will be obtained approximately 5 minutes before each blood collection, and the actual collection times will be recorded.
At each collection, collect blood by venipuncture in a serum separator tube(s). Centrifuge at 1200 RCF for 10±5 minutes, and aliquot 1.5 mL of serum each into 2 labeled externally threaded cryogenic vials and immediately freeze. […] Serum samples will be transported with a sufficient amount of dry ice to keep the samples frozen until arrival.
Each patient underwent PK analysis, adverse event monitoring, patient self-assessment diaries (1-10 scale), and blinded photographic assessments. […] Toxicity was determined on a weekly basis during Cycle 1 (i.e., the first 28 days of topical agent application) and subsequently every four weeks. Patients were managed with adequate safety (adverse event) monitoring and pharmacokinetic (PK) analysis in order to determine levels of exposure.

HepG2 (liver cancer) = experiment: Cell growth / viability assay, HepG2; assay type: cell-based
Method: The drug treatment period was usually three days. At the end of the three days, the background OD of the 96-well plate was read at 280 nm, before 20 μL of the “Substrate Cell Titer 96 Aqueous One Solution Reagent” (Promega) was added to each well. The plate was returned to the 37° C. incubator, and its OD at 490 nm was read each hour until an OD of approximately 1.5 was reached. The net OD increase was calculated by subtracting the pre-substrate OD reading.
The impact of the drug on the cells was calculated by comparing the OD at different concentrations in relation to the OD of the control wells (without the drug).
Then these pretreated cells were utilized to set up the cell based assay.

Gottingen Minipigs = experiment: 4-week dermal toxicity study in Gottingen Minipigs; details: twice daily, 29 consecutive days, 2.1 mL
Method: Observations for morbidity, mortality, injury, and the availability of food and water were conducted twice daily for all animals. Clinical observations were conducted weekly.

HEKa cells [4] = experiment: Real-time PCR Heat Shock Protein array, calcitriol-treated HEKa cells; assay type: cell-based, human; details: 0.1 μg/mL calcitriol, two independent experiments
Method: (§1) The PCR array analysis utilized two groups of genes—those related to Heat Shock Proteins (SABiosciences), and those related to Neuroscience Ion Channels and Transporters (SABioscience). Cell culture: Primary human epidermal keratinocytes (HEKa) were maintained in Epilife Medium (Cascade Biologics, Inc., Portland OR) along with Human Keratinocyte Growth Supplement (Cascade Biologics, Inc., Portland OR). […] D3 treatment of HEKa cells: […] Vehicle control group of cells were treated with 5 mL media containing 1 μL of ethanol. Cells were harvested 3, 6, 16, 24, 48, or 72 hours after the start of the treatment. RNA isolation: Cells were lysed for RNA isolation at different treatment times using the RNeasy Mini kit (Qiagen, Inc., Valencia CA) following the manufacturer's instructions. RNA was quantified by measuring optical density at 260 nm. First Strand Synthesis: […] Real-time PCR: Products from the first strand synthesis were diluted with water, mixed with the SYBR green master mix (SABiosciences., Frederick MD) and loaded onto PCR arrays. Real time PCR was run on the PCR Arrays (Heat Shock Protein Arrays, and Neuroscience and Ion Channel Arrays) (SABiosciences, Frederick MD) on a Biorad CFX96. Data analyses were performed using the PCR array data analysis software available on the SABiosciences website.

HEKa cells [5] = experiment: Real-time PCR Neuroscience Ion Channels and Transporters array, calcitriol-treated HEKa cells; assay type: cell-based, human; details: 0.1 μg/mL calcitriol, three independent experiments; for KCNB2 mRNA Regulation Pattern: until 24 hours
Method: as §1

## C=C1/C(=C\C=C2/CCC[C@]3(C)[C@@H]([C@H](C)CCCC(C)(C)O)CC[C@@H]23)C[C@@H](O)C[C@@H]1O [Calcitriol, (5Z,7E)-9,10-secocholesta-5,7.10(19Hriene-1 a,33.25-triol]
[1]; 1 μg/mL
  location of hair growth: limited to the treated area
[1]; 3 μg/mL
  location of hair growth: also observed on the dorsal region
[1]; 6-hour exposure
  protection from CIA: complete protection
[1]; 1.5 hour exposure
  protection from CIA: no protection
[2]
  tumor response: significant tumor regression
C57BL/6 mice; C57BL/6 mice, topical
  follicular apoptosis induced by cyclophosphamide: significantly diminish the degree of follicular apoptosis
C57BL/6 mice; female C57BL/6 adolescent mice
  prevention of cyclophosphamide-induced alopecia: failed to demonstrate efficacy
  regrowth of pigmented hair shafts: significantly accelerated, enhanced, and quantitatively improved
[3]; 5 μg/mL, Week 1, Hour 0 (pre-dose)
  Serum Levels of Calcitriol: 43.8 and 47.9 and 55.3
[3]; 5 μg/mL, Week 1, Hour 2
  Serum Levels of Calcitriol: 38.8 and 48.4 and 46.2
[3]; 5 μg/mL, Week 1, Hour 4
  Serum Levels of Calcitriol: 45 and 51 and 58.7
[3]; 5 μg/mL, Week 1, Hour 8
  Serum Levels of Calcitriol: 33.2 and 44.4 and 39.5
[3]; 5 μg/mL, Week 5, Hour 0
  Serum Levels of Calcitriol: 57.5 and 49.6 and 61.8
[3]; 5 μg/mL, Week 9, Hour 0
  Serum Levels of Calcitriol: 63.2 and 46.5
[3]; 5 μg/mL, Week 13, Hour 0
  Serum Levels of Calcitriol: 56 and 54.6
[3]; 10 μg/mL, Week 1, Hour 0 (pre-dose)
  Serum Levels of Calcitriol: 37.7 and 60 and 32
[3]; 10 μg/mL, Week 1, Hour 2
  Serum Levels of Calcitriol: 32.9 and 59 and 33
[3]; 10 μg/mL, Week 1, Hour 4
  Serum Levels of Calcitriol: 36.7 and 57 and 31
[3]; 10 μg/mL, Week 1, Hour 8
  Serum Levels of Calcitriol: 50 and 28
[3]; 10 μg/mL, Week 5, Hour 0
  Serum Levels of Calcitriol: 83.2 and 32 and 44
[3]; 10 μg/mL, Week 9, Hour 0
  Serum Levels of Calcitriol: 41
[3]; 10 μg/mL, Week 13, Hour 0
  Serum Levels of Calcitriol: 25.9
[3]; 20 μg/mL, Week 1, Hour 0 (pre-dose)
  Serum Levels of Calcitriol: 110 and 33.7 and 41 and 46.8 and 40
[3]; 20 μg/mL, Week 1, Hour 2
  Serum Levels of Calcitriol: 90 and 38 and 54.1 and 40
[3]; 20 μg/mL, Week 1, Hour 4
  Serum Levels of Calcitriol: 85 and 22.4 and 39 and 50.1 and 41
[3]; 20 μg/mL, Week 1, Hour 8
  Serum Levels of Calcitriol: 65 and 26.4 and 38 and 53.7 and 39
[3]; 20 μg/mL, Week 5, Hour 0
  Serum Levels of Calcitriol: 27.3 and 98 and 56.4
[3]; 20 μg/mL, Week 9, Hour 0
  Serum Levels of Calcitriol: 64.9 and 37.7
[3]; 40 μg/mL, Week 1, Hour 0 (pre-dose)
  Serum Levels of Calcitriol: 44.7
[3]; 40 μg/mL, Week 1, Hour 2
  Serum Levels of Calcitriol: 75.2 and 67.1
[3]; 40 μg/mL, Week 1, Hour 4
  Serum Levels of Calcitriol: 56.1 and 68.4
[3]; 40 μg/mL, Week 1, Hour 8
  Serum Levels of Calcitriol: 30.1 and 66.9
[3]; 40 μg/mL, Week 9, Hour 0
  Serum Levels of Calcitriol: 37.3
[3]; 40 μg/mL, Week 13, Hour 0
  Serum Levels of Calcitriol: 92 and 46.7
[3]; 60 μg/mL, Week 1, Hour 0 (pre-dose)
  Serum Levels of Calcitriol: 29.1 and 36.4
[3]; 60 μg/mL, Week 1, Hour 2
  Serum Levels of Calcitriol: 21.3 and 38.5 and 42
[3]; 60 μg/mL, Week 1, Hour 4
  Serum Levels of Calcitriol: 24.7 and 41.2 and 42.9
[3]; 60 μg/mL, Week 1, Hour 8
  Serum Levels of Calcitriol: 23.3 and 39.4 and 41.5
[3]; 60 μg/mL, Week 5, Hour 0
  Serum Levels of Calcitriol: 65.4 and 81.6
[3]; 60 μg/mL, Week 9, Hour 0
  Serum Levels of Calcitriol: 60.7 and 61.5
[3]; 60 μg/mL, Week 13, Hour 0
  Serum Levels of Calcitriol: 45
[3]; 80 μg/mL, Week 1, Hour 0 (pre-dose)
  Serum Levels of Calcitriol: 28.3 and 29.4 and 55.7
[3]; 80 μg/mL, Week 1, Hour 2
  Serum Levels of Calcitriol: 31.8 and 35.6 and 64.8
[3]; 80 μg/mL, Week 1, Hour 4
  Serum Levels of Calcitriol: 29.6 and 42.1 and 61.4
[3]; 80 μg/mL, Week 1, Hour 8
  Serum Levels of Calcitriol: 36.6 and 58.9
[3]; 80 μg/mL, Week 5, Hour 0
  Serum Levels of Calcitriol: 95.5
HepG2 (liver cancer); Hep-G2
  effect of calcitriol on the cytotoxic effect of Doxorubicin: did not appear to appreciably alter
HepG2 (liver cancer); Hep-G2, 0.1 μg/mL calcitriol
  5-FU ED50 curve with vs without calcitriol: not significantly different
HepG2 (liver cancer); Hep-G2, 0.1 μg/mL calcitriol for two passages
  response to doxorubicin, cisplatin and erlotinib after calcitriol exposure: did not alter
Gottingen Minipigs
  no-observed-adverse-effect-level (NOAEL): 10.31 µg/mL
HEKa cells [4]
  DNAJC6 mRNA Regulation Pattern: Downregulated
  HSF4 mRNA Regulation Pattern: Upregulated at 48 hours
  HSPA2 mRNA Regulation Pattern: Upregulated at 48 hours
  HSPB1 mRNA Regulation Pattern: Down regulated at 48 hours
HEKa cells [5]; at 16 hrs
  SLC1A1 mRNA Regulation Pattern: upregulated at
HEKa cells [5]; at 48 hours
  KCNN4 mRNA Regulation Pattern: upregulated at 48
HEKa cells [5]
  KCNB2 mRNA Regulation Pattern: upregulated
HEKa cells [5]; listed as Vitamin D3
  KCNB2 mRNA Regulation Pattern: upregulated until
